Publication PMC4729137, “Functional analysis of androgen receptor mutations that confer anti-androgen resistance identified in circulating cell-free DNA from prostate cancer patients” (Genome Biology, 2016)
Substitutions are numbered along the chain they refer to.

Key:
[1] = molecular target: T1, E894K-AR (Homo sapiens, UniProt P10275, E894K); test: cell-based
T1 sequence (P10275 1-920 E894K): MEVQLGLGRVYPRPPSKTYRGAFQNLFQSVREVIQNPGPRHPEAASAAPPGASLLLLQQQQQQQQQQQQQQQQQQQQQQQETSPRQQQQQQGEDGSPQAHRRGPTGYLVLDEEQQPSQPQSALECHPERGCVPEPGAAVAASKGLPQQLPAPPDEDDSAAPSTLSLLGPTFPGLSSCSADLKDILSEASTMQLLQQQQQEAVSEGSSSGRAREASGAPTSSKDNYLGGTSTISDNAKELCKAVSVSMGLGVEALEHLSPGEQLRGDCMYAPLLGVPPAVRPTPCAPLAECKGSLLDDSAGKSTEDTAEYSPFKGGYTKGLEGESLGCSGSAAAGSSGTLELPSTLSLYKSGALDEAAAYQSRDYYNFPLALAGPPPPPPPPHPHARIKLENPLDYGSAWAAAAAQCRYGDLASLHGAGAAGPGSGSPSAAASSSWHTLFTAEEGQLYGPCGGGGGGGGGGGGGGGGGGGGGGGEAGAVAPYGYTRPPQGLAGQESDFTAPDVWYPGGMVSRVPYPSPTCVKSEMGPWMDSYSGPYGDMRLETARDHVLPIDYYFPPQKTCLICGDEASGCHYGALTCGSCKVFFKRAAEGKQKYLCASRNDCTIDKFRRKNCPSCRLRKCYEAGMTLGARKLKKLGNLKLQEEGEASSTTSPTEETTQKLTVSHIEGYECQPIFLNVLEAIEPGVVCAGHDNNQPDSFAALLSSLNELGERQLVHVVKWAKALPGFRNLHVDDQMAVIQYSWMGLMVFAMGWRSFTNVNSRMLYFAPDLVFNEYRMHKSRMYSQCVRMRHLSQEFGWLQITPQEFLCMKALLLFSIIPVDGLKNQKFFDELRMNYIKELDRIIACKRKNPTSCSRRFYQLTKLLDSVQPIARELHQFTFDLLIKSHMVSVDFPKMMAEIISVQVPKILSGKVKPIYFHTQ

[2] = molecular target: T2, H875Y-AR (Homo sapiens, UniProt P10275, H875Y); test: cell-based
T2 sequence (P10275 1-920 H875Y): T1 sequence (P10275 1-920 E894K) with H875Y, K894E

C[C@]12CCC(=O)C=C1CC[C@@H]1[C@@H]2[C@@H](O)C[C@@]2(C)[C@H]1CC[C@]2(O)C(=O)CO [hydrocortisone]
EC50 [1]: > 500 nM
EC50 [2]: > 500 nM
